The target of data set [1] is T1, Corticotropin-releasing factor receptor 2/Corticotropin-releasing factor-binding protein (Homo sapiens, UniProt P24387+Q13324).
T1 sequence (Q13324 whole entry): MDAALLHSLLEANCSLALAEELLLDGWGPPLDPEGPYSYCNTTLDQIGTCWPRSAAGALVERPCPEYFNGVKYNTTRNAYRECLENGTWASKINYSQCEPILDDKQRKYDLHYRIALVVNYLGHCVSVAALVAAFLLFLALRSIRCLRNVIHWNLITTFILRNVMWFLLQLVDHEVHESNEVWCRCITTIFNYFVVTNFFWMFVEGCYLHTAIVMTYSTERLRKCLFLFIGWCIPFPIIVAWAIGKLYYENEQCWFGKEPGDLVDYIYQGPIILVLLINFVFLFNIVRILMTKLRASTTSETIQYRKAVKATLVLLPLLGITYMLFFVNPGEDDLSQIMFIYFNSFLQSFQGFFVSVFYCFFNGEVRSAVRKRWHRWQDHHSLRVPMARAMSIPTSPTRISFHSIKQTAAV
T1 sequence (P24387 whole entry): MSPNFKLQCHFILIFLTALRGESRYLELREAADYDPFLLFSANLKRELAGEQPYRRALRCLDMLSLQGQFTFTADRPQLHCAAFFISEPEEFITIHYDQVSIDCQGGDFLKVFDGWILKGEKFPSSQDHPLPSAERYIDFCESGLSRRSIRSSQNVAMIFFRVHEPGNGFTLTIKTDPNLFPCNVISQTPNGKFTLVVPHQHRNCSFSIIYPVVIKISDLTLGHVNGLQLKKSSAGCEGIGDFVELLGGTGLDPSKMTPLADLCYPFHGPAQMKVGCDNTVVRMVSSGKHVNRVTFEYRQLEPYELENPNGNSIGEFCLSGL
Briefly: activators of CRF receptor 2 with binding protein – uHTS hits, confirmation (AID 602473). Format: functional. As to conditions: read-out: EC50_Mean.

Another data set has as its target Caspase-8 (Homo sapiens, UniProt Q14790). Briefly: caspase-8 inhibition counter-screen, dose response, selectivity assay for caspase-6 inhibitor project, biochemical, Z-IETD-R110 fluorescence, cherry-picked samples (AID 743294).
The target of data set [2] is T2, Sentrin-specific protease 6 (Homo sapiens, UniProt Q9GZR1).
T2 sequence (Q9GZR1 whole entry): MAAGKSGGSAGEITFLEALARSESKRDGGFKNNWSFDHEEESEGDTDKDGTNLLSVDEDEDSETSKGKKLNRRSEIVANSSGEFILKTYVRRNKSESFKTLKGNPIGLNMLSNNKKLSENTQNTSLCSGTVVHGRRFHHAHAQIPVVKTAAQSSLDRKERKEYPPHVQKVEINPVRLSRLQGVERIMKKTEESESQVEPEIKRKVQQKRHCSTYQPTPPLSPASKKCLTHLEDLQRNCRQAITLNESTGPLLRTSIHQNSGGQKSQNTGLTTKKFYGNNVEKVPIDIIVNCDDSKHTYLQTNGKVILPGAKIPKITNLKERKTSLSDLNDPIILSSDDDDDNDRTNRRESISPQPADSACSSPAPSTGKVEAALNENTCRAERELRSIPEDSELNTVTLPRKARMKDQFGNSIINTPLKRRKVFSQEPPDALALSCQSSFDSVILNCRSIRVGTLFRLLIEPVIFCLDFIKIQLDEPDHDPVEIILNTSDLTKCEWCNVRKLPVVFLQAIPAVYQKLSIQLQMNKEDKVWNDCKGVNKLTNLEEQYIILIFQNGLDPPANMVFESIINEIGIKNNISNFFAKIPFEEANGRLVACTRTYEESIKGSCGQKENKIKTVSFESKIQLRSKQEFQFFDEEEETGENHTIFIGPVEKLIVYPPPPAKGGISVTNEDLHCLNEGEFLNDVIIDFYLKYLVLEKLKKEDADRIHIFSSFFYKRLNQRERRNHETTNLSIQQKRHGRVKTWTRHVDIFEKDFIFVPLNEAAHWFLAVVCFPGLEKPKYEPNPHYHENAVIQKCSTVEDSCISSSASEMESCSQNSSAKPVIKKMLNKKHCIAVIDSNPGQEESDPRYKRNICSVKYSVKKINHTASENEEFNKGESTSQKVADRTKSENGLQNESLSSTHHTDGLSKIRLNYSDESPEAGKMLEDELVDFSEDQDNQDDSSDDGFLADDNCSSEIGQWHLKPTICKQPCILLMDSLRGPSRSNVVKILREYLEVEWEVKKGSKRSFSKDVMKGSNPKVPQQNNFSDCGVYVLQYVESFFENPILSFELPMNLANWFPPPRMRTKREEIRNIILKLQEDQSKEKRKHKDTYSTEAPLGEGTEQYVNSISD
As to the kind of experiment: SAR Analysis of small molecule inhibitors of Sentrin-specific protease 6 (SENP6) using a Luminescent assay. [Related pubchem assays (depositor defined):AID2582, AID2599]. In kind it is functional.

Data set [3] deals with Phosphorylase b kinase gamma catalytic chain, liver/testis isoform (Homo sapiens, UniProt P15735). Format: functional.
Data set [4] addresses Serine/threonine-protein kinase PLK4 (Homo sapiens, UniProt O00444). Format: functional.
In data set [5] the target is Serine/threonine-protein kinase D3 (Homo sapiens, UniProt O94806). Format: functional.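 Further: determined within a kinase panel screen, with PRKCN as the panel member.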
In data set [6] the target is Testis-specific serine/threonine-protein kinase 2 (Homo sapiens, UniProt Q96PF2). In kind it is functional.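 Further: part of the Navigating the Kinome panel, target entry STK22B.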
For data set [7], the target named is Death-associated protein kinase 3 (Homo sapiens, UniProt O43293). In kind it is functional.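 Further: measured as one member of a kinome-wide profiling panel.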
Data set [8] addresses Rho-associated protein kinase 2 (Homo sapiens, UniProt O75116). In kind it is functional.
Data set [9] concerns the target Cell division cycle 7-related protein kinase (Homo sapiens, UniProt O00311). Format: functional.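 Further: value obtained from a kinome-wide kinase panel.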
The target in data set [10] is Mast/stem cell growth factor receptor Kit (Homo sapiens, UniProt P10721). Format: functional.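 Further: KIT entry within a kinase panel assay.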
Data set [11] deals with MAP/microtubule affinity-regulating kinase 3 (Homo sapiens, UniProt P27448). In kind it is functional.
The target in data set [12] is Insulin-like growth factor 1 receptor (Homo sapiens, UniProt P08069). As to the kind of experiment: Navigating the Kinome. Panel member name: IGF1R. In kind it is functional.
Data set [13] deals with Dual specificity tyrosine-phosphorylation-regulated kinase 4 (Homo sapiens, UniProt Q9NR20). Format: functional.
Data set [14] deals with Maternal embryonic leucine zipper kinase (Homo sapiens, UniProt Q14680). In kind it is functional.
Data set [15] concerns the target Receptor tyrosine-protein kinase erbB-4 (Homo sapiens, UniProt Q15303). Format: functional.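 Further: ERBB4 member of a kinome-wide kinase profiling panel.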
In data set [16] the target is cAMP-dependent protein kinase catalytic subunit alpha (Homo sapiens, UniProt P17612). Format: functional.
The target of data set [17] is Dual specificity protein kinase CLK4 (Homo sapiens, UniProt Q9HAZ1). Format: functional.
Another data set addresses Cytochrome P450 2C9 (Homo sapiens, UniProt P11712).

The source made the active and inactive calls.

These results are taken from ChEMBL document CHEMBL1201862, “PubChem BioAssay data set” (2004).

One may read the AC50 as the concentration giving half of the maximal activity seen. By IC50 is commonly meant the concentration needed to halve the response being measured. The Ki is a measure of affinity in units of concentration, obtained from inhibition or displacement.

Sequence of Death-associated protein kinase 3 (O43293 whole entry): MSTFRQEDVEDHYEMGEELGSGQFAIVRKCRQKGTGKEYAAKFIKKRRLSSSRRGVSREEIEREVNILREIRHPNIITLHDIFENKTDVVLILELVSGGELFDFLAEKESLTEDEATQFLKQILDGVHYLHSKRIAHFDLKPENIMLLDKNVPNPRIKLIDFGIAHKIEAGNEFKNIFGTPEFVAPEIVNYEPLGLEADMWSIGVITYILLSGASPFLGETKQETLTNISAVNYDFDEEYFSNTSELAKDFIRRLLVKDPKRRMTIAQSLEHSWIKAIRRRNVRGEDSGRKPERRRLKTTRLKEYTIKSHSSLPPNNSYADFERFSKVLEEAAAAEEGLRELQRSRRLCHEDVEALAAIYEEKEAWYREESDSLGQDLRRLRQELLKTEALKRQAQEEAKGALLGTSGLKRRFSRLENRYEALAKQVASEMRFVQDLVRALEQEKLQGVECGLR
Sequence of Receptor tyrosine-protein kinase erbB-4 (Q15303 whole entry): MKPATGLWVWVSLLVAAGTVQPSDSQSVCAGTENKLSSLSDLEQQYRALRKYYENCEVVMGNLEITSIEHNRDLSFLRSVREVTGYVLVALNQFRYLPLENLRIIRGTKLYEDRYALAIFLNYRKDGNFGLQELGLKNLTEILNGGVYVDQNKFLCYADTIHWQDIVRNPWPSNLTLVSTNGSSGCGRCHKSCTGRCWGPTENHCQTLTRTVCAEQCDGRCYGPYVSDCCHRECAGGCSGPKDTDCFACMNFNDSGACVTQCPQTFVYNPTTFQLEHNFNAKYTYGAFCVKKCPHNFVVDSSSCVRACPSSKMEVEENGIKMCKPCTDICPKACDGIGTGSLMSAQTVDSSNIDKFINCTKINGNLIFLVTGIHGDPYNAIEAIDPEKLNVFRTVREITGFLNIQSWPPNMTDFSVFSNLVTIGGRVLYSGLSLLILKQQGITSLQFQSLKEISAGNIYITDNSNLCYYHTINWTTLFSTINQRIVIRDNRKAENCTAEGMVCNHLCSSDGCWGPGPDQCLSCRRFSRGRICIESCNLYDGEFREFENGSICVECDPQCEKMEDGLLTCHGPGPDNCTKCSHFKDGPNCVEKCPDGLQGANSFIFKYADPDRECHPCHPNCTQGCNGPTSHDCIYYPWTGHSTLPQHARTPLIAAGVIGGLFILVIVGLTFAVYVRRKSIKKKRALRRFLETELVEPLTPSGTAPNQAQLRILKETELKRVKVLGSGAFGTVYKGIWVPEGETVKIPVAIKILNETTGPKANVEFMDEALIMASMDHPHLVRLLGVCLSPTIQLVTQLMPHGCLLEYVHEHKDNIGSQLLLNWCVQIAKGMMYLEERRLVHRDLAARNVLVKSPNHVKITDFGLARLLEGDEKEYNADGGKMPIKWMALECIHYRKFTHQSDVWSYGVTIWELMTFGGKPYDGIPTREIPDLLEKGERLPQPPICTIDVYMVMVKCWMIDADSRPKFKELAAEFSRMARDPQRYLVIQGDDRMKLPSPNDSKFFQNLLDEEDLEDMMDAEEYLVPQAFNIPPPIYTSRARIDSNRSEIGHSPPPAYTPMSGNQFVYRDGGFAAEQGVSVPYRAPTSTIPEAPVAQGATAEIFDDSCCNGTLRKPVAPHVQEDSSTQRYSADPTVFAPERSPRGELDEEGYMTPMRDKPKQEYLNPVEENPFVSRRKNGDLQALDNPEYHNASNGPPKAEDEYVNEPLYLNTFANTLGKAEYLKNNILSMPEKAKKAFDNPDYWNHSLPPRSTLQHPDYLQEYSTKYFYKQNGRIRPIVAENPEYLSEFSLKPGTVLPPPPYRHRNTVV
Sequence of Maternal embryonic leucine zipper kinase (Q14680 whole entry): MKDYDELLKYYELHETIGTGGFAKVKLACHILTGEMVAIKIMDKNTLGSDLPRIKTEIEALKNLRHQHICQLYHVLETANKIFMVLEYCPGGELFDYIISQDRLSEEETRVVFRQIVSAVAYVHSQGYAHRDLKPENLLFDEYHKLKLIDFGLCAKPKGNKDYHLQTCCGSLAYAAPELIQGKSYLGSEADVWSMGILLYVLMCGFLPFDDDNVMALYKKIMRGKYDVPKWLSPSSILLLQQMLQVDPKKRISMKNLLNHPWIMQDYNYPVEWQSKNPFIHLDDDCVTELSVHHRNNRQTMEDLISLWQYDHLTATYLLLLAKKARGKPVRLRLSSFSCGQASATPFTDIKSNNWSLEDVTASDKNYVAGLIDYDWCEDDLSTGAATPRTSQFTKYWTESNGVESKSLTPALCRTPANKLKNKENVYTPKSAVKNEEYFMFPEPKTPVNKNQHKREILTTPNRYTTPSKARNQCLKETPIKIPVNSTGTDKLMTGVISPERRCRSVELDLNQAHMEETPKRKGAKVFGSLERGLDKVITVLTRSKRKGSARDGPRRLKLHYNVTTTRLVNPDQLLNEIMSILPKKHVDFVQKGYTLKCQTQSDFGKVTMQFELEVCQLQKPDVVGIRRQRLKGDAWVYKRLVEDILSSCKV
Sequence of Mast/stem cell growth factor receptor Kit (P10721 whole entry): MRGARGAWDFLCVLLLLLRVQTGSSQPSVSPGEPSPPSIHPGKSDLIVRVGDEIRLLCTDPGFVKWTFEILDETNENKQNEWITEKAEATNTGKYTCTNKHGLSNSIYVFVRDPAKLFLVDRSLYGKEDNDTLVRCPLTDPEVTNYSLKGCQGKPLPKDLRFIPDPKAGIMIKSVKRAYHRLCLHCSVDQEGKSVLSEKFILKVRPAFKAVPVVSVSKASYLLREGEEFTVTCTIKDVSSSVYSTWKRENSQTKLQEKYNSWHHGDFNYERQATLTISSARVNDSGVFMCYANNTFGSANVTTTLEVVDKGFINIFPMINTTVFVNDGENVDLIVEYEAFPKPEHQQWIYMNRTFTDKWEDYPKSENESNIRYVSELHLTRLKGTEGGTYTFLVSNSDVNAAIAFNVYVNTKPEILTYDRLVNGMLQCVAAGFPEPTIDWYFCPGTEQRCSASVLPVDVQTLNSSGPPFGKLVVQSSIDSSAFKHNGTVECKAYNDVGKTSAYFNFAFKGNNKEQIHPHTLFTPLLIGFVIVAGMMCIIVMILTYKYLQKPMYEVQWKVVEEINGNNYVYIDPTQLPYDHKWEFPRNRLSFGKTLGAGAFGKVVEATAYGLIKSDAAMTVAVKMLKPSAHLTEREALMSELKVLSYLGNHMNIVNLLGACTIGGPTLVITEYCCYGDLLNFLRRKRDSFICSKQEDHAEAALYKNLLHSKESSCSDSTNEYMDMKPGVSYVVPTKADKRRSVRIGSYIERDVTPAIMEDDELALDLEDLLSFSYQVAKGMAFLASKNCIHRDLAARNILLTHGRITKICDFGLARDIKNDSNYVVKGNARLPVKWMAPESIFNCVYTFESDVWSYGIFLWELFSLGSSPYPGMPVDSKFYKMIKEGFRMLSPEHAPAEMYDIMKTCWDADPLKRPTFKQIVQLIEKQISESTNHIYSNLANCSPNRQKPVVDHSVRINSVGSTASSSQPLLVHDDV
Sequence of Caspase-8 (Q14790 217-374 limits assumed): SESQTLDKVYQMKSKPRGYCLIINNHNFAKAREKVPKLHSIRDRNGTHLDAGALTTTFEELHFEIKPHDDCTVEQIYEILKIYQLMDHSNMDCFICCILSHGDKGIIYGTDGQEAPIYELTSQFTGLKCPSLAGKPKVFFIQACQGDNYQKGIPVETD
Sequence of Caspase-8 (Q14790 385-479 limits assumed): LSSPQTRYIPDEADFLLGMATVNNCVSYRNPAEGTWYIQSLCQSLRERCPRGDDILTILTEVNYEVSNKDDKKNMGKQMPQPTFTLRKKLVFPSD
Sequence of Testis-specific serine/threonine-protein kinase 2 (Q96PF2 whole entry): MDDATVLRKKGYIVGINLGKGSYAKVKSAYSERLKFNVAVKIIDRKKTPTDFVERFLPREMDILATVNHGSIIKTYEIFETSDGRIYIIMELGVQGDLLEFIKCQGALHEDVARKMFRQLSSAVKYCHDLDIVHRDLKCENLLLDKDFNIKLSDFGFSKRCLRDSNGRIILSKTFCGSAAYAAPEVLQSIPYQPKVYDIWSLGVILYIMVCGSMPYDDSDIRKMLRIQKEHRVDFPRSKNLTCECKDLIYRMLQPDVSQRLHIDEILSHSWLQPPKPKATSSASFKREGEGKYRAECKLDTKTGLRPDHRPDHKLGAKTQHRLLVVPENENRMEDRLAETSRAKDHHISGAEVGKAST
Sequence of MAP/microtubule affinity-regulating kinase 3 (P27448 whole entry): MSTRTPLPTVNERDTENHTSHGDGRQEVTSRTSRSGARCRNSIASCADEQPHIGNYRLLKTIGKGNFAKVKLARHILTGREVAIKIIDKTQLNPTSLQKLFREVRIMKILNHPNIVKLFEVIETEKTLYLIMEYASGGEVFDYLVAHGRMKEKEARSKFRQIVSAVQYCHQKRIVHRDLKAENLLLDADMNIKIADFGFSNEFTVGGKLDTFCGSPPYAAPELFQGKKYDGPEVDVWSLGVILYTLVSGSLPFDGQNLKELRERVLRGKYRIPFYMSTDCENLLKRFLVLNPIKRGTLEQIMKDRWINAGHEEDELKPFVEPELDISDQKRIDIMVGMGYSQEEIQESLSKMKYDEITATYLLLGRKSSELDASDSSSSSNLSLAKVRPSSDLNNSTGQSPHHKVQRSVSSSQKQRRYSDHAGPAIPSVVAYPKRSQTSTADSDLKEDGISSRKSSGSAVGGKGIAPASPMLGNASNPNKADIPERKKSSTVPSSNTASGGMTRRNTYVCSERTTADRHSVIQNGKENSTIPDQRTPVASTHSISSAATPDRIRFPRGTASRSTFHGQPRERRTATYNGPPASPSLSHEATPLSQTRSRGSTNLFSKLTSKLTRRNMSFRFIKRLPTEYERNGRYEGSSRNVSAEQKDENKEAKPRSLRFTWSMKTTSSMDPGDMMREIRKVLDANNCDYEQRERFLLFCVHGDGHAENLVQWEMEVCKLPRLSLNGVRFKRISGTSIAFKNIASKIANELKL

Consider `O=C(COC(=O)c1ccc([N+](=O)[O-])s1)Nc1cccc(S(=O)(=O)/N=C2/CCCCCN2)c1`, for which, in [1], the EC50 is > 53000 nM (inactive). Moreover, on Caspase-8, the AC50 is 21200 nM (active).

For the molecule `COc1ccc(C(C[N+](=O)[O-])c2c(C)[nH]n(-c3ccccc3)c2=O)cc1` (centres undefined), the IC50 in [2] was 9410 nM (active).

As for `Oc1c2ccccc2c2c3c(cccc13)N=N2` [SP-600125], the Ki was 631 nM (active) in [3]; 200 nM (active) in data set [4]; 100 nM (active) in [5]; > 1580 nM (inactive) in data set [6]; 398 nM (active) in data set [7]; 3160 nM (active) in data set [8]. The Ki in data set [9] was 1000 nM (active); in [10] it was 1260 nM (active); in [11] it was 3.98 nM (active); in data set [12], > 2000 nM (inactive); in data set [13] it was > 7940 nM (inactive); in data set [14], 398 nM (active). Besides, the Ki in data set [15] was 3980 nM (active); in data set [16] it was > 7940 nM (inactive); in data set [17], 63.1 nM (active). Also, the AC50 result at Cytochrome P450 2C9 is “inconclusive”.
